Measured values as given in ChEMBL document CHEMBL1201862, “PubChem BioAssay data set” (2004).
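Cultured in 96-well plates, cells were exposed to test compound for 48 hours across five concentrations. GI50 is the concentration that inhibits growth by half.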 Active and inactive are the calls of the source. No stated cut-off is given here; in the data, active = GI50 up to about 1.1 µM and inactive = higher.

What was measured:
Assay in all cases: DTP human tumour cell line panel, 48 h
[1] = test system: DLD-1
[2] = test system: DMS-114
[3] = test system: HOP-18
[4] = test system: KM-20L2
[5] = test system: RXF 631
[6] = test system: XF498
[7] = test system: BT-549
[8] = test system: MDA-MB-435
[9] = test system: T47D

Question: How did the GI50 [1] turn out when `CC1=NC(C(=O)O)Cc2c1[nH]c1ccccc21` (stereo not given) was run?
Answer: > 100 µM (inactive)

Question: What about the GI50 [2] of the same compound?
Answer: > 100 µM (inactive)

Question: And the GI50 [3]?
Answer: > 100 µM (inactive)

Question: And the GI50 [4]?
Answer: > 100 µM (inactive)

Question: What about the GI50 [5] of the same compound?
Answer: > 100 µM (inactive)

Question: And the GI50 [6]?
Answer: > 100 µM (inactive)

Question: Which results are given for `Fc1c(F)c(F)c(CSc2nc3ccccc3[nH]2)c(F)c1F`?
Answer: GI50 [7]: > 100 µM (inactive); GI50 [8]: > 100 µM (inactive); GI50 [9]: > 100 µM (inactive)

Question: What does the source list for `CCOC(=O)CNC(=O)C(CCC(=O)N(C)O)NC(=O)CCC(N)C(=O)O` (stereo not given)?
Answer: GI50 [7]: > 100 µM (inactive); GI50 [8]: > 100 µM (inactive); GI50 [9]: > 100 µM (inactive)

Question: `O=C1NC2(CCCCC2)C2CCCCCC12` (stereo not given) was tested. Which GI50 [1] did it give?
Answer: > 100 µM (inactive)

Question: And the GI50 [2]?
Answer: > 100 µM (inactive)

Question: What about the GI50 [4] of the same compound?
Answer: > 100 µM (inactive)

Question: What about the GI50 [5] of the same compound?
Answer: > 100 µM (inactive)

Question: And the GI50 [6]?
Answer: > 100 µM (inactive)

Question: Which results are given for `COc1ccc([C@H]2C=[N+]([O-])O[C@H](OC3CCCC3)[C@@H]2OC(C)=O)cc1OC`?
Answer: GI50 [8]: 25.4 µM (inactive); GI50 [9]: 16.1 µM (inactive)

Question: For `CCOC(=O)c1csc(NC(=O)CCCC#N)n1`, which GI50 [8] is on record?
Answer: > 100 µM (inactive)

Question: What about the GI50 [9] of the same compound?
Answer: > 100 µM (inactive)

Question: Which GI50 [1] does the source give for `O=C1CN(c2ccccc2)C(=O)C1C(=O)Nc1ccc(Cl)c(Cl)c1` (stereo not given) here?
Answer: 5.08 µM (inactive)

Question: What about the GI50 [2] of the same compound?
Answer: 2.76 µM (inactive)

Question: And the GI50 [4]?
Answer: 4.41 µM (inactive)

Question: And the GI50 [5]?
Answer: 3.59 µM (inactive)

Question: Which GI50 [7] does the source give for `CO/C(=N/N1CC1C(F)(F)F)c1ccncc1` (stereo not given) here?
Answer: 43.3 µM (inactive)

Question: What about the GI50 [8] of the same compound?
Answer: > 100 µM (inactive)

Question: What about the GI50 [9] of the same compound?
Answer: > 100 µM (inactive)

Question: `Cc1ccc([N+](=O)[O-])cc1S(=O)(=O)Nc1ccc(C2=NNC(c3cccs3)C2)cc1` (stereo not given) was tested. Which GI50 [7] did it give?
Answer: 23.2 µM (inactive)

Question: And the GI50 [8]?
Answer: 35.6 µM (inactive)

Question: What about the GI50 [9] of the same compound?
Answer: 4.85 µM (inactive)

Question: For `CC(NC(=O)Cc1ccccc1)NC(=O)C(C)C(=O)NCc1ccccc1` (stereo not given), which GI50 [7] is on record?
Answer: 27.9 µM (inactive)

Question: And the GI50 [8]?
Answer: > 100 µM (inactive)

Question: What about the GI50 [9] of the same compound?
Answer: > 100 µM (inactive)

Question: What does the source list for `Cn1c2c(c3ccccc31)CCN(CCCCN1CCCCC1)C2=O`?
Answer: GI50 [1]: > 100 µM (inactive); GI50 [3]: > 100 µM (inactive); GI50 [4]: > 100 µM (inactive); GI50 [5]: > 100 µM (inactive); GI50 [6]: > 100 µM (inactive)

Question: `CC1(C)C2CCC3(OCCO3)C1C(O)C2` (stereo not given) was tested. Which GI50 [1] did it give?
Answer: > 100 µM (inactive)

Question: And the GI50 [3]?
Answer: > 100 µM (inactive)

Question: And the GI50 [4]?
Answer: > 100 µM (inactive)

Question: And the GI50 [5]?
Answer: > 100 µM (inactive)

Question: And the GI50 [6]?
Answer: > 100 µM (inactive)

Question: Which results are given for `O=C(NNC(=S)NCc1ccccc1)C12CC3CC(CC(C3)C1)C2`?
Answer: GI50 [7]: > 100 µM (inactive); GI50 [8]: 87.3 µM (inactive); GI50 [9]: 49.2 µM (inactive)

Question: Which results are given for `COc1cc2c(cc1OC)C(Cl)C(c1cc(OC)c(OC)c(OC)c1)=C2Cl` (stereo not given)?
Answer: GI50 [1]: 19.4 µM (inactive); GI50 [2]: 10.8 µM (inactive); GI50 [3]: 14.7 µM (inactive); GI50 [4]: 17.9 µM (inactive); GI50 [5]: 18.8 µM (inactive)

Question: Which GI50 [8] does the source give for `NS(=O)(=O)c1ccc(NC(=S)NC=C2C(=O)c3ccccc3C2=O)cc1` here?
Answer: 91.4 µM (inactive)

Question: And the GI50 [9]?
Answer: 30.8 µM (inactive)

Question: How did the GI50 [1] turn out when `COc1ccc(N2C(=O)C3C=CC(n4[nH]c(=O)n(Cc5ccccc5)c4=O)CC3C2=O)cc1` (stereo not given) was run?
Answer: > 100 µM (inactive)

Question: And the GI50 [2]?
Answer: > 100 µM (inactive)

Question: And the GI50 [3]?
Answer: > 100 µM (inactive)

Question: And the GI50 [4]?
Answer: > 100 µM (inactive)

Question: And the GI50 [6]?
Answer: > 100 µM (inactive)

Question: Which results are given for `CN(C)CCSc1nccc(-c2ccc(-c3ccnc(SCCN(C)C)n3)s2)n1`?
Answer: GI50 [1]: 4.81 µM (inactive); GI50 [2]: 11.9 µM (inactive); GI50 [3]: 27.2 µM (inactive); GI50 [4]: 7.36 µM (inactive); GI50 [6]: 15.6 µM (inactive)

Question: `CCOC(=O)CC(NC(=O)c1ccc(/N=N/N(C)C)cc1)C(=O)OCC` (stereo not given) was tested. Which GI50 [1] did it give?
Answer: > 100 µM (inactive)

Question: For `CCN(CC)CCN(C(=O)C(C)(C)C)c1ccccc1N`, which GI50 [7] is on record?
Answer: > 100 µM (inactive)

Question: With `Nc1ccc(/C=C/c2ccnc3ccccc23)cc1` as the compound, how does the GI50 [1] read?
Answer: 22.9 µM (inactive)

Question: What about the GI50 [2] of the same compound?
Answer: 15.1 µM (inactive)

Question: And the GI50 [4]?
Answer: 20.2 µM (inactive)

Question: How did the GI50 [1] turn out when `O=C1OC(c2ccc(Cl)cc2)(c2ccc(Cl)cc2)c2c1ccc1ccccc21` was run?
Answer: > 100 µM (inactive)

Question: And the GI50 [3]?
Answer: > 100 µM (inactive)

Question: And the GI50 [4]?
Answer: > 100 µM (inactive)

Question: What about the GI50 [6] of the same compound?
Answer: > 100 µM (inactive)

Question: Which results are given for `Cc1cc2c(C(C)C)c(O)c(O)c(/C=N/c3ccccc3)c2c(O)c1-c1c(C)cc2c(C(C)C)c(O)c(O)c(/C=N/c3ccccc3)c2c1O`?
Answer: GI50 [1]: > 100 µM (inactive); GI50 [2]: > 100 µM (inactive); GI50 [4]: > 100 µM (inactive); GI50 [6]: > 100 µM (inactive)

Question: With `O=c1[nH]c2c(c(=O)[nH]1)SSC2` as the compound, how does the GI50 [7] read?
Answer: 2.25 µM (inactive)

Question: What about the GI50 [8] of the same compound?
Answer: 2.04 µM (inactive)

Question: And the GI50 [9]?
Answer: 11.2 µM (inactive)

Question: With `Nc1cc2nc(O)c(O)nc2cc1N` as the compound, how does the GI50 [7] read?
Answer: > 100 µM (inactive)

Question: And the GI50 [8]?
Answer: > 100 µM (inactive)

Question: What about the GI50 [9] of the same compound?
Answer: > 100 µM (inactive)

Question: Which results are given for `Cc1c(Cl)cccc1NC(=O)/C=C/c1ccccc1`?
Answer: GI50 [7]: > 100 µM (inactive); GI50 [8]: > 100 µM (inactive); GI50 [9]: > 100 µM (inactive)

Question: What does the source list for `CSC1NC(c2ccccc2)=C(C#N)C(=O)N1C1OCC(OC(C)=O)C(OC(C)=O)C1OC(C)=O` (stereo not given)?
Answer: GI50 [7]: > 100 µM (inactive); GI50 [8]: > 100 µM (inactive)

Question: With `COc1ccc2c(C)cc(N/N=C/c3sccc3C)nc2c1` as the compound, how does the GI50 [7] read?
Answer: 13.1 µM (inactive)

Question: What about the GI50 [8] of the same compound?
Answer: 16.6 µM (inactive)

Question: What about the GI50 [9] of the same compound?
Answer: 7.76 µM (inactive)

Question: How did the GI50 [7] turn out when `CO[C@@H]1O[C@H](C(=O)c2ccccc2)[C@H]2OC(C)(C)O[C@@H]12` was run?
Answer: 68.9 µM (inactive)

Question: And the GI50 [8]?
Answer: 85.3 µM (inactive)

Question: What about the GI50 [9] of the same compound?
Answer: > 100 µM (inactive)

Question: For `Clc1ccc2c(c1)CC1C[N+]3=C(CCCCC3)C1=C2` (stereo not given), which GI50 [7] is on record?
Answer: 26.5 µM (inactive)

Question: And the GI50 [8]?
Answer: 59.2 µM (inactive)

Question: What about the GI50 [9] of the same compound?
Answer: 29.6 µM (inactive)

Question: Which results are given for `COC(=O)c1cccc(C(=O)OC)c1`?
Answer: GI50 [1]: > 100 µM (inactive); GI50 [3]: > 100 µM (inactive); GI50 [6]: > 100 µM (inactive)

Question: What does the source list for `CCOC(=O)NC(=O)c1cn(CCSCCOC(=O)NCCCCCCNC(=O)OCCSCCn2cc(C(=O)NC(=O)OCC)c(=O)[nH]c2=O)c(=O)[nH]c1=O`?
Answer: GI50 [1]: > 100 µM (inactive); GI50 [2]: > 100 µM (inactive); GI50 [3]: > 100 µM (inactive); GI50 [4]: > 100 µM (inactive)

Question: With `O=C(O)CCC(NC(=O)c1ccc(Nc2nc3cc(C(F)(F)F)ccc3nc2C(=O)O)cc1)C(=O)O` (stereo not given) as the compound, how does the GI50 [8] read?
Answer: > 100 µM (inactive)

Question: What about the GI50 [9] of the same compound?
Answer: 48.3 µM (inactive)

Question: Which results are given for `COc1ccc(C2=Nc3c(nc(OC)[nH]c3=O)NC(c3ccccc3)C2)cc1` (stereo not given)?
Answer: GI50 [7]: 31 µM (inactive); GI50 [8]: 33.3 µM (inactive)

Question: With `CCOC(=O)c1nc2cc(C(F)(F)F)ccc2nc1Oc1ccc(F)cc1` as the compound, how does the GI50 [7] read?
Answer: > 100 µM (inactive)

Question: What about the GI50 [8] of the same compound?
Answer: > 100 µM (inactive)

Question: What about the GI50 [9] of the same compound?
Answer: 5.9 µM (inactive)

Question: What does the source list for `CCOC1=C2N=C(Cc3ccc(F)cc3)NC2C(=O)c2ccccc21` (stereo not given)?
Answer: GI50 [1]: 27 µM (inactive); GI50 [2]: 18.5 µM (inactive); GI50 [4]: 40.3 µM (inactive); GI50 [5]: 15.1 µM (inactive); GI50 [6]: > 10 µM (inactive)

Question: `COc1nc(N)nc2nc[nH]c12` was tested. Which GI50 [7] did it give?
Answer: 232 µM (inactive)

Question: What about the GI50 [1] of the same compound?
Answer: 385 µM (inactive)

Question: What about the GI50 [2] of the same compound?
Answer: 467 µM (inactive)

Question: And the GI50 [3]?
Answer: 360 µM (inactive)

Question: And the GI50 [4]?
Answer: > 500 µM (inactive)

Question: And the GI50 [8]?
Answer: > 500 µM (inactive)

Question: And the GI50 [5]?
Answer: 647 µM (inactive)

Question: What about the GI50 [9] of the same compound?
Answer: 418 µM (inactive)

Question: And the GI50 [6]?
Answer: 279 µM (inactive)

Question: For `O=c1[nH]c(Nc2cccc(C(F)(F)F)c2)nc2[nH]cnc12`, which GI50 [8] is on record?
Answer: > 100 µM (inactive)

Question: And the GI50 [9]?
Answer: > 100 µM (inactive)

Question: `NC1(C(=O)O)CCc2ccc(N(CCCl)CCCl)cc2C1` (stereo not given) was tested. Which GI50 [1] did it give?
Answer: > 100 µM (inactive)

Question: What about the GI50 [2] of the same compound?
Answer: 45.9 µM (inactive)

Question: And the GI50 [3]?
Answer: > 100 µM (inactive)

Question: What about the GI50 [4] of the same compound?
Answer: > 100 µM (inactive)

Question: What about the GI50 [6] of the same compound?
Answer: 43.1 µM (inactive)

Question: Which results are given for `C=CCNC1=C2C[C@@H](C)C[C@H](OC)[C@H](O)[C@@H](C)/C=C(\C)[C@H](OC(N)=O)[C@@H](OC)/C=C\C=C(/C)C(=O)NC(=CC1=O)C2=O` [TANESPIMYCIN]?
Answer: GI50 [7]: 5.73 µM (inactive); GI50 [8]: 0.0427 µM (active); GI50 [9]: 0.847 µM (active)
